Patent US20230365576A1, “BRM Targeting Compounds And Associated Methods Of Use” (Prelude Therapeutics Incorporated, priority 2022, published 2023)

Assays:
SMARCA2 = biological target: T1, SMARCA2 (Homo sapiens, UniProt P51531); test: SMARCA2 HiBiT degradation assay in HeLa cells; format: cell-based; details: 18 hours; for DC50: read-out: SMARCA2 IC50; for Dmax: HeLa
T1 construct: SMARCA2-HiBiT knock-in Hela monoclonal cell (CS302366); host or cells: HeLa (CRISPR HiBiT knock-in monoclonal line, heterozygous)
Procedure: (§1) Example A. SMARCA2 HiBiT and SMARCA4 HiBiT Degradation Assay
(§2) Preparation of SMARCA2/4-HiBiT Knock-In Cells
(§3) HiBiT peptide knock-in of SMARCA2 in LgBiT expressing HEK293T cells was performed by CRISPR-mediated tagging system as described Promega. The homozygous HiBiT knock-in on c-terminus SMARCA2 was confirmed by sanger sequence. SMARCA2-HiBiT knock-in Hela monoclonal cell (CS302366) and SMARCA4-HiBiT knock-in Hela monoclonal cell (CS3023226) were purchased from Promega. The heterozygous HiBiT-knock-in was confirmed by sanger sequence in both SMARCA2-HiBiT and SMARCA4-HiBiT monoclonal cells.
(§4) SMARCA2 HiBiT and SMARCA4 HiBiT Degradation Assay in HeLa Cells
(§5) Compounds were dissolved in DMSO to make 10 mM stock and 3-fold series dilutions were further conducted keeping the highest concentration 10 μM. NCIH1693 and NCIH520 cells were maintained in PRMI 1640 medium (Corning Cellgro, Catalog #:10-040-CV) supplemented with 10% v/v FBS (GE Healthcare, Catalog #: SH30910.03) by splitting 1:3 twice a week.
(§6) Dispense 10 ul aliquot of prepared Hela-SMARCA2-HiBiT or Hela-SMARCA4-HiBiT cells (1:1 ratio of cells:Trypan Blue (#1450013, Bio-Rad)) onto cell counting slide (#145-0011, Bio-Rad) and obtain cell density and cell viability using cell counter (TC20, Bio-Rad). Remove appropriate volume of resuspended cells from culture flask to accommodate 2500 cells/well @ 20 μL/well. Transfer Hela-HiBiT cells to 50 mL conical (#430290, Corning). Spin down at 1000 rpm for 5 min using tabletop centrifuge (SPINCHRON 15, Beckman). Discard supernatant and resuspend cell pellet in modified EMEM (#30-2003, ATCC) cell culture media containing 10% FBS (F2422-500ML, Sigma), and 1X Penicillin/Streptomycin (200 g/L) (30-002-CI, Corning) to a cell density of 125,000 cells/mL. Dispense 20 μL of resuspended Hela-HiBit cells per well in 384-well TC treated plate (#12-565-343, Thermo Scientific) using standard cassette (#50950372, Thermo Scientific) on Multidrop Combi (#5840310, Thermo Scientific) inside laminar flow cabinet. Dispense test compounds onto plates using digital liquid dispenser (D300E, Tecan). Incubate plates in humidified tissue culture incubator @37° C. for 18 hours. Add 20 μL of prepared Nano-Glo® HiBiT Lytic detection buffer (N3050, Promega) to each well of 384-well plate using small tube cassette (#24073295, Thermo Scientific) on Multidrop Combi, incubate @ RT for 30-60 min. Read plates on microplate reader (Envision 2105, PerkinElmer) using 384 well Ultra-Sensitive luminescence mode. Raw data files and compound information reports are swept into centralized data lake and deconvoluted using automated scripts designed by TetraScience, Inc. Data analysis, curve-fitting and reporting done in Dotmatics Informatics Suite using Screening Ultra module.

SMARCA4 = biological target: T2, SMARCA4 (Homo sapiens, UniProt P51532); test: SMARCA4 HiBiT degradation assay in HeLa cells; format: cell-based; details: 18 hours; for Dmax: HeLa
T2 construct: SMARCA4-HiBiT knock-in Hela monoclonal cell (CS3023226) were purchased from Promega; host or cells: HeLa (CRISPR HiBiT knock-in monoclonal line, heterozygous)
Procedure: as §1, §2, §3, §4, §5, §6

T2 sequence (P51532 whole entry): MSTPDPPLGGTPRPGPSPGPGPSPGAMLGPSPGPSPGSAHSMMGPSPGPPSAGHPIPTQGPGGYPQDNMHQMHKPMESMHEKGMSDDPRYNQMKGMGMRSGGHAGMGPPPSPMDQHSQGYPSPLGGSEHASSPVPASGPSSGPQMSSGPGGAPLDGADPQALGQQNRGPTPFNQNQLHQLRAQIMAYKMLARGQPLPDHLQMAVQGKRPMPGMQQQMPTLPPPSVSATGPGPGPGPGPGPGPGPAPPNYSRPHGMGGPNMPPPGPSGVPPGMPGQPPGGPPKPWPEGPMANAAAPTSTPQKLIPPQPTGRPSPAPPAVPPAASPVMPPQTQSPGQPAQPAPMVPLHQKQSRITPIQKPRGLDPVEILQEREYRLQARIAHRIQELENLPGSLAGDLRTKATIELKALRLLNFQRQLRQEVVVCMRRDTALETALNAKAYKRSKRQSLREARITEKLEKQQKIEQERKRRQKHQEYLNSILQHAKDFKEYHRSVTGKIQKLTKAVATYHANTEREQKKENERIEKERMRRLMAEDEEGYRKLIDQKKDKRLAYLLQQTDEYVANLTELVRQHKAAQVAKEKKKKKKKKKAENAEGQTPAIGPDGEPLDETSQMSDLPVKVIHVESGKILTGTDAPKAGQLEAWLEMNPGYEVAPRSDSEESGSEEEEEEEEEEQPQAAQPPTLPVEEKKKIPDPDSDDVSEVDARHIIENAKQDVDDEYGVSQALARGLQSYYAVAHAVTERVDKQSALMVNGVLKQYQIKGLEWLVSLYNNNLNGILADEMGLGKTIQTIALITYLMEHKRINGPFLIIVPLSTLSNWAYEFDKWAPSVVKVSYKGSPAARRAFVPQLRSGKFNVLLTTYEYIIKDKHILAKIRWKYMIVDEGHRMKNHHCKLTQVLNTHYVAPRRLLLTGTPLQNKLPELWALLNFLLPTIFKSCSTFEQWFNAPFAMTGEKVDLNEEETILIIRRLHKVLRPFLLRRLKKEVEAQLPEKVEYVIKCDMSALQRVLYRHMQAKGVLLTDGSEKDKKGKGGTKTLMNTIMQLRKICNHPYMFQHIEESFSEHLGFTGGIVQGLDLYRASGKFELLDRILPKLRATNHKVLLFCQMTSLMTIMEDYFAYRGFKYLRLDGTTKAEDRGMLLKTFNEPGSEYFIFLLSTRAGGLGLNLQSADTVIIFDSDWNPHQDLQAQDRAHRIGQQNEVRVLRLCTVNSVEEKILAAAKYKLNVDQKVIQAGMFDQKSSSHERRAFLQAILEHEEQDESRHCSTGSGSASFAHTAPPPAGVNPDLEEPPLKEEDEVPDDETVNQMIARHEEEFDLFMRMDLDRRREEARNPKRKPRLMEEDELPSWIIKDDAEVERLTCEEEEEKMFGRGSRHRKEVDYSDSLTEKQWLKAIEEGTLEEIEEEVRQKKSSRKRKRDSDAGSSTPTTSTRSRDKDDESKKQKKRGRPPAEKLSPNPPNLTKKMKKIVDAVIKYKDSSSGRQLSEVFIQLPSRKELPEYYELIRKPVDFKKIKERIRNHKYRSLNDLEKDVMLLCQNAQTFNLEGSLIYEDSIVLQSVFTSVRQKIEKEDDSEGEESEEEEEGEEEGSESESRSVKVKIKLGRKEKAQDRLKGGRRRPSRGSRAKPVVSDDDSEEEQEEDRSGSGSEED
T1 sequence (P51531 whole entry): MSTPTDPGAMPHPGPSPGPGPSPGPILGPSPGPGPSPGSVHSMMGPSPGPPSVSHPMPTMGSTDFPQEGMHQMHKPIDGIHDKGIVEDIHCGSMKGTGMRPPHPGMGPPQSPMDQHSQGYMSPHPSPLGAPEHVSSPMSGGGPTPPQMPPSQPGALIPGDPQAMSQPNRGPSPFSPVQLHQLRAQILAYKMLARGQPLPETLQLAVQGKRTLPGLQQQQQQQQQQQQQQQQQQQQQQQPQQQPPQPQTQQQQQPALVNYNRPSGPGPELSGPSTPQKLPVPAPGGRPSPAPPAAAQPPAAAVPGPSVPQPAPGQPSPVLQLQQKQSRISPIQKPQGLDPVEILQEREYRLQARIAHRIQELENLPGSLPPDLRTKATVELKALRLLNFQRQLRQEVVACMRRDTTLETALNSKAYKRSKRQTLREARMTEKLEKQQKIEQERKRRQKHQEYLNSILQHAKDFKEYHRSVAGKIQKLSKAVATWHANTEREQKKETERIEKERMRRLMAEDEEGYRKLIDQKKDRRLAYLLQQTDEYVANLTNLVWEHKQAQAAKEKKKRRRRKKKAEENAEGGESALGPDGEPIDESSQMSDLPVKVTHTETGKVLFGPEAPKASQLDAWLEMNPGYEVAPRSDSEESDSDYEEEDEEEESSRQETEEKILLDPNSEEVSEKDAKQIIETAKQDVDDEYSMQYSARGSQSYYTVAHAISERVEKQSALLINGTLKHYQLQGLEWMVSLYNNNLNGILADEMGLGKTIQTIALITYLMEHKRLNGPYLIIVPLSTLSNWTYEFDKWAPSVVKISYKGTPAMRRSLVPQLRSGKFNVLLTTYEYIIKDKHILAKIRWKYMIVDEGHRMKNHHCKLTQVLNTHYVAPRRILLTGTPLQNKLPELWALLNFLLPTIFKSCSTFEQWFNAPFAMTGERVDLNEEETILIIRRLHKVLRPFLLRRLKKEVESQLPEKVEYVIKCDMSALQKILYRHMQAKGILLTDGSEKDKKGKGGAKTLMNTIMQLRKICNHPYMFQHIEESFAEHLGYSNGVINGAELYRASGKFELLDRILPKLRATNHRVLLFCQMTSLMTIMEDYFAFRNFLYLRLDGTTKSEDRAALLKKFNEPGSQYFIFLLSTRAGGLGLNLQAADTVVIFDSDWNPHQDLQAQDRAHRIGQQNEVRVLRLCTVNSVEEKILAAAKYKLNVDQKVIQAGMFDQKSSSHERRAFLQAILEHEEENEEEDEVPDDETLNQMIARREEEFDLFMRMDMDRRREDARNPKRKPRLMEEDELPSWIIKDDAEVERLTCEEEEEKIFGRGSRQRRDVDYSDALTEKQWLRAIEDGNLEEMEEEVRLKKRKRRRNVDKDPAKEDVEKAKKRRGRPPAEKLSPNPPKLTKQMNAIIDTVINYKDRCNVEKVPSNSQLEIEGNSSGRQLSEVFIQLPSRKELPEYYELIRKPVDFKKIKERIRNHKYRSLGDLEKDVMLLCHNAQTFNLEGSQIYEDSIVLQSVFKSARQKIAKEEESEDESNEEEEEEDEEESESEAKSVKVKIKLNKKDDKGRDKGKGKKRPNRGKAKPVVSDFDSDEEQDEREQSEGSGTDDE

SMILES	SMARCA2 DMax % (SMARCA2)	DC50 (SMARCA2) [nM]	DC50 (SMARCA4) [nM]	SMARCA4 DMax % (SMARCA4)	Dmax (SMARCA2) [%]	Dmax (SMARCA4) [%]
C[C@@H]1CN(CC2CCN(c3ccc4c(c3)C(=O)N(C3CCC(=O)NC3=O)C4)CC2)C[C@H](C)N1C(=O)N1CCN2c3cc(-c4cccc(F)c4O)nnc3NCC2(C)C1 (single isomer, unassigned) [Example 12]	A (A=Dmax>75%)	< 100	< 100	A (A=Dmax>75%)		
C[C@@H]1CN(CC2CCN(c3ccc4c(c3)C(=O)N(C3CCC(=O)NC3=O)C4)CC2)C[C@@H](C)N1C(=O)N1CCN2c3cc(-c4cccc(F)c4O)nnc3NCC2(C)C1 (single isomer, unassigned) [Example 13]		< 100	< 100		> 75	< 50
C[C@@H]1CN(CC2CCN(c3ccc4c(c3)C(=O)N(C3CCC(=O)NC3=O)C4)CC2)C[C@@H](C)N1C(=O)N1CCN2c3cc(-c4cccc(Cl)c4O)nnc3NCC2(C)C1 (single isomer, unassigned) [Example 14]		< 100	< 100		> 75	50 to 75
C[C@@H]1CN(CC2CCN(c3ccc4c(c3)C(=O)N(C3CCC(=O)NC3=O)C4)CC2)C[C@@H](C)N1C(=O)N1CCN2c3cc(-c4cc(F)cc(F)c4O)nnc3NCC2(C)C1 (single isomer, unassigned) [Example 28]		< 100	< 100		> 75	< 50
C[C@@H]1CN(CC2CCN(c3ccc4c(c3)C(=O)N(C3CCC(=O)NC3=O)C4)CC2)C[C@H](C)N1C(=O)N1CCN2c3cc(-c4cc(F)cc(F)c4O)nnc3NCC2(C)C1 (single isomer, unassigned) [Example 34]		< 100	< 100		> 75	> 75
O=C1CCC(N2Cc3ccc(N4CC[C@H](CN5C[C@@H]6[C@H](C5)[C@H]6CN5CCN6c7cc(-c8cc(F)cc(F)c8O)nnc7NC[C@H]6C5)[C@@H](F)C4)cc3C2=O)C(=O)N1 (single isomer, unassigned) [Example 37]		< 100	< 100		> 75	
C[C@H]1CN2c3cc(-c4cc(F)cc(F)c4O)nnc3NC[C@H]2CN1C[C@H]1[C@@H]2CN(C[C@H]3CCN(c4ccc5c(c4)C(=O)N(C4CCC(=O)NC4=O)C5)C[C@@H]3F)C[C@@H]21 (single isomer, unassigned) [Example 39]		< 100	< 100		> 75	< 50
O=C1CCC(N2Cc3ccc(N4CCC(CN5C[C@@H]6[C@H](C5)[C@H]6CN5CCN6c7cc(-c8cc(F)cc(F)c8O)nnc7NC[C@H]6C5)C(F)(F)C4)cc3C2=O)C(=O)N1 (single isomer, unassigned) [Example 40]	B (B=50%<Dmax≤75%)	< 100	< 100			50 to 75
O=C1CCC(N2Cc3ccc(N4CCC(CN5C[C@@H]6[C@H](C5)[C@H]6CN5CCN6c7cc(-c8cc(F)cc(F)c8O)nnc7NC[C@H]6C5)C(F)(F)C4)cc3C2=O)C(=O)N1 (single isomer, unassigned) [Example 41]	A (A=Dmax>75%)	< 100	< 100	B (B=50%<Dmax≤75%)		
C[C@@H]1CN(C[C@H]2CCN(c3ccc4c(c3)C(=O)N(C3CCC(=O)NC3=O)C4)C[C@@H]2F)C[C@H](C)N1C(=O)N1CCN2c3cc(-c4cccc(F)c4O)nnc3NC[C@H]2C1 (single isomer, unassigned) [Example 44]		< 100	< 100		> 75	< 50
CCC12CNc3nnc(-c4cc(F)cc(F)c4O)cc3N1CCN(C(=O)N1[C@H](C)CN(CC3CCN(c4ccc5c(c4)C(=O)N(C4CCC(=O)NC4=O)C5)CC3)C[C@@H]1C)C2 (single isomer, unassigned) [Example 59]		< 100	< 100		> 75	> 75
CCC12CNc3nnc(-c4cccc(F)c4O)cc3N1CCN(C(=O)N1[C@H](C)CN(CC3CCN(c4ccc5c(c4)C(=O)N(C4CCC(=O)NC4=O)C5)CC3)C[C@@H]1C)C2 (single isomer, unassigned) [Example 60]		< 100	< 100		> 75	> 75
CCC12CNc3nnc(-c4cc(F)cc(F)c4O)cc3N1CCN(C(=O)N1[C@H](C)CN(CC3CCN(c4ccc5c(c4)C(=O)N(C4CCC(=O)NC4=O)C5)CC3)C[C@@H]1C)C2 (single isomer, unassigned) [Example 61]		< 100	< 100			
CCC12CNc3nnc(-c4cccc(F)c4O)cc3N1CCN(C(=O)N1[C@H](C)CN(CC3CCN(c4ccc5c(c4)C(=O)N(C4CCC(=O)NC4=O)C5)CC3)C[C@@H]1C)C2 (single isomer, unassigned) [Example 62]	A (A=Dmax>75%)	< 100	< 100	A (A=Dmax>75%)		
C[C@@H]1CN(CC2CCN(c3ccc4c(c3)C(=O)N(C3CCC(=O)NC3=O)C4)CC2)C[C@@H](C)N1C(=O)N1CCN2c3cc(-c4cccc(Cl)c4O)nnc3NCC2(C)C1 (single isomer, unassigned) [Example 63]		< 100	< 100			
C[C@@H]1CN(CC2CCN(c3ccc4c(c3)C(=O)N(C3CCC(=O)NC3=O)C4)CC2)C[C@H](C)N1C(=O)N1CCN2c3cc(-c4cc(F)cc(F)c4O)nnc3NCC2(C)C1 (single isomer, unassigned) [Example 64]		< 100	< 100			
CCC12CNc3nnc(-c4cccc(F)c4O)cc3N1CCN(C(=O)N1CCN(CC3CCN(c4ccc5c(c4)C(=O)N([C@H]4CCC(=O)NC4=O)C5)CC3)CC1(C)C)C2 (single isomer, unassigned) [Example 74]		< 100	< 100		> 75	50 to 75
CCC12CNc3nnc(-c4cccc(Cl)c4O)cc3N1CCN(C(=O)N1[C@H](C)CN(CC3CCN(c4ccc5c(c4)C(=O)N([C@H]4CCC(=O)NC4=O)C5)CC3)C[C@H]1C)C2 (single isomer, unassigned) [Example 75]		< 100	< 100		> 75	50 to 75
CCC12CNc3nnc(-c4cccc(Cl)c4O)cc3N1CCN(C(=O)N1CCN(CC3CCN(c4ccc5c(c4)C(=O)N([C@H]4CCC(=O)NC4=O)C5)CC3)CC1(C)C)C2 (single isomer, unassigned) [Example 76]		< 100	< 100		> 75	50 to 75
CCC12CNc3nnc(-c4cccc(Cl)c4O)cc3N1CCN(C(=O)N1C[C@H](C)N(CC3CCN(c4ccc5c(c4)C(=O)N([C@H]4CCC(=O)NC4=O)C5)CC3)C[C@H]1C)C2 (single isomer, unassigned) [Example 77]		< 100	< 100		> 75	50 to 75
CCC12CNc3nnc(-c4cccc(F)c4O)cc3N1CCN(C(=O)N1C[C@H](C)N(CC3CCN(c4ccc5c(c4)C(=O)N([C@H]4CCC(=O)NC4=O)C5)CC3)C[C@H]1C)C2 (single isomer, unassigned) [Example 78]		< 100	< 100		> 75	50 to 75
CCC12CNc3nnc(-c4cccc(F)c4O)cc3N1CCN(C(=O)N1CCN(CC3CCN(c4ccc5c(c4)C(=O)N(C4CCC(=O)NC4=O)C5)CC3)CC1(C)C)C2 (single isomer, unassigned) [Example 79, 3-(6-(4-((4-(6a-ethyl-2-(3-fluoro-2-hydroxyphenyl)-6,6a,7,8,9,10-hexahydro-5H-pyrazino-[1′,2′:4,5]pyrazino[2,3-c]pyridazine-8-carbonyl)-3,3-dimethylpiperazin-1-yl)methyl)-piperidin-1-yl)-1-oxoisoindolin-2-yl)piperidine-2,6-dione]		< 100	> 1000		> 75	< 50
